This is an account of results in patent publication US7863414B2, “Methods of treatment and uses for CaMKII and its interaction with HDACs and calpain” (The Board of Regents of the University of Texas Systems, priority 2005, dated 2011).

In test [1] the test system is HDAC4. The experiment in a line: Nuclear export of Flag-HDAC4 in cardiomyocytes (NRVMs), immunofluorescence. The test is classed as cell-based, rat. The settings on record: for Nuclear export of HDAC4 induced by adrenergic agonist: Flag-HDAC4, PE or Iso 10 μmol/l, up to 4 hrs; for Effect of kinase inhibitor on PE-induced nuclear export of HDAC4: adenoviral Flag-HDAC4, inhibitor pretreatment 30 min, PE 4 hrs, Stauro 500 nmol/l, KN93 5 μmol/l, KN62 10 μmol/l, AIPII-2 500 nmol/l, Bis 2.5 μmol/l, Gö6976 200 nmol/l, H89 1 μmol/l. The text has this: (§1) Cardiomyocyte culture and adenoviral infection. NRVMs were isolated from 1-2 day Sprague Dawley rats. For adenovirus production, cDNAs encoding FLAG-tagged HDAC4 wild-type or a mutant containing alanines in place of serines 246, 467 and 632 (S/A) were subcloned into the pACCMV vector and co-transfected with pJM17 into 293 cells. Primary lysates were used to re-infect 293 cells and viral plaques were obtained using the agar overlay method. The production of adenoviral GFP-HDAC5 was described previously 18. NRVMs were infected 24 h after plating, starved for 4 h, and stimulated with PE or Iso for the indicated time period. In experiments with kinase inhibitors, NRVMs were pretreated with the inhibitor 30 min prior stimulation. For assessing cardiomyocyte hypertrophy, NRVMs were starved for 24 h and stimulated with PE for another 24 hrs. Subcellular localization of Flag-HDAC4 and cardiomyocyte hypertrophy, as assessed by sarcomeric organization, was determined by indirect immunofluorescence.
(§2) Indirect Immunofluorescence. COS cells were grown on glass coverslips, fixed in paraformaldehyde (4%), permeabilized in 0.1% Triton-X-100 and blocked in PBS containing goat serum (5%). Primary antibodies against FLAG (monoclonal or rabbit; Sigma), Myc (polyclonal, A-14; Santa Cruz), or HA (polyclonal, Y-11; Santa Cruz) were used at a dilution of 1:200. Secondary antibodies conjugated to either fluoresceine or Texas Red (Vector Laboratories) were also used at a dilution of 1:200. Staining of NRVMs for sarcomeres was performed with an antibody directed against sarcomeric α-actinin (Sigma). All images were captured at a magnification of ×40.

The next test has as its system HDAC5. The experiment in a line: Nuclear export of GFP-HDAC5 in cardiomyocytes (NRVMs). The test is classed as cell-based, rat. The settings on record: PE 4 hrs.
From the text: as §1
Indirect Immunofluorescence. COS cells were grown on glass coverslips, fixed in paraformaldehyde (4%), permeabilized in 0.1% Triton-X-100 and blocked in PBS containing goat serum (5%). Primary antibodies against FLAG (monoclonal or rabbit; Sigma), Myc (polyclonal, A-14; Santa Cruz), or HA (polyclonal, Y-11; Santa Cruz) were used at a dilution of 1:200. […]

For test [2], the system named is neonatal rat ventricular myocytes (NRVMs). The experiment in a line: Cardiomyocyte hypertrophy in NRVMs. The test is classed as cell-based. Particulars: data not shown.
From the text: as §1

In a further test the test system is MEF2. The experiment in a line: Reporter assay of endogenous MEF2 activity (3xMEF2-Luc) in NRVMs. Particulars: ionomycin 0.25 μmol/l; for Effect on ionomycin-induced increase of endogenous MEF2 activity: NRVMs pretreated 30 min, Gö6976 200 nmol/l, KN93 2.5 μmol/l, KN62 5 μmol/l, CSA 1 μmol/l. The test is classed as cell-based, rat. How it is done: Endogenous MEF2 activity in NRVMs. One day after plating, a MEF2 dependent luciferase reporter (3xMEF2-Luc)56, carrying three MEF2-DNA binding sites, was transfected into NRVMs using Lipofectamine plus (Invitrogen; Carlsbad, Calif.). To control for transfection efficiency NRVMs were cotransfected with a β-galactosidase reporter plasmid (pCMV-lacZ). Twenty-four hours after transfection, NRVMs were starved for 24 h, pretreated with kinase inhibitors or cyclosporine for 30 min and stimulated with ionomycin for 24 h. Luciferase and β-galactosidase levels were quantified employing the Luciferase Assay Kit (Promega) and the FluoReporter Kit (Molecular probes), respectively.

For test [3], the system named is HDAC4. The experiment in a line: Subcellular localization of HDAC4 in Cos cells with active CaMKIIδB mutants, leptomycin B treatment. The test is classed as cell-based. The settings on record: 12 hours. How it is done:
as §2, with “Cell culture and transfection assays. COS cells were maintained in DMEM with fetal bovine serum (10%), L-glutamine (2 mM), and penicillin-streptomycin. Transfection of COS cells was performed with Fugene 6 (Roche Molecular Biochemicals) according to manufacturer's instructions. Indirect” for “Indirect”

The next test relates to HDAC4-GFP. The experiment in a line: Cellomics high content assay, nuclear localization of HDAC4-GFP in COS cells transfected with activated CaMKII. Particulars: COS cells transfected with HDAC4-GFP and CaMKII; concentration range; fixed at 48 hrs; EC50 only in FIG. 12. The test is classed as cell-based. As to the method: The plates are incubated at room temperature for 60 minutes.

Entries after “also recorded” stand apart in the source; their conditions may differ.

Turning to `CNC[C@H](O)c1cccc(O)c1` [phenylephrine], the “Nuclear export of HDAC4 induced by adrenergic agonist” value in the test on HDAC4 [1] is reported as “time-dependent nuclear export”; with HDAC4 [1] (listed as PE), “time-dependently induced nuclear export”. For the same molecule, the “Nuclear export of HDAC5 in response to agonist” value in the test with HDAC5 is given as “exported”. Besides, in test [2], the Hypertrophic growth response entry is reported as “evoked a hypertrophic growth response”.

For the molecule “autoctamide-2 related inhibitory peptide II [AIPII-2]”, the “Effect of kinase inhibitor on PE-induced nuclear export of HDAC4” value (from here on “Effect of kinase inhibitor”) was “effective in blocking” with HDAC4 [1] and “markedly reduced” in the test on HDAC4 [1] (listed as AIPII).

For the molecule `Cn1c2ccccc2c2c3c(c4c5ccccc5n(CCC#N)c4c21)C(=O)NC3` [Gö6976], the “Effect of kinase inhibitor” value in the test on HDAC4 [1] was “did not affect”. In addition, in the test with MEF2, the “Effect on ionomycin-induced increase of endogenous MEF2 activity” value (from here on “Effect on ionomycin-induced increase”) was “did not affect”.

In the case of `CC(C)NCC(O)c1ccc(O)c(O)c1` (centres unmarked) [isoprenaline], the “Nuclear export of HDAC4 induced by adrenergic agonist” value was “time-dependent nuclear export” in the test with HDAC4 [1] and “time-dependently induced nuclear export” with HDAC4 [1] (listed as Iso). The Hypertrophic growth response result in test [2] is given as “evoked a hypertrophic growth response”.

Consider `O=S(=O)(NCCNC/C=C/c1ccc(Br)cc1)c1cccc2cnccc12` [H89], for which, in the test on HDAC4 [1], the “Effect of kinase inhibitor” value was “did not affect”.

As for `CN([C@@H](Cc1ccc(OS(=O)(=O)c2cccc3cnccc23)cc1)C(=O)N1CCN(c2ccccc2)CC1)S(=O)(=O)c1cccc2cnccc12` [KN62], the “Effect of kinase inhibitor” value in the test with HDAC4 [1] was “markedly reduced; also recorded: effective in blocking”. Also, in the test with MEF2, the “Effect on ionomycin-induced increase” value was “blocked”.

As to `CN(C)CCCn1cc(C2=C(c3c[nH]c4ccccc34)C(=O)NC2=O)c2ccccc21` [bisindolylmaleimide I], the “Effect of kinase inhibitor” value in the test with HDAC4 [1] is “did not affect”.

On to `CCC(=C/[C@H](C)C/C=C/C(C)=C/[C@@H](C)C(=O)[C@@H](C)[C@H](O)[C@@H](C)C/C(C)=C/C(=O)O)/C=C/[C@@H]1OC(=O)C=C[C@@H]1C` [leptomycin B], for which the “Nuclear accumulation of HDAC4 after leptomycin B” value is “completely accumulated in the nucleus; also recorded: accumulates in the nucleus” in the test on HDAC4 [3] (absence or presence of constitutive nuclear active CaMKIIδb T287D/S332A) and “no accumulation” with HDAC4 [3] (presence of cytosolic active CaMKIIδb T287D/K328N/K329N or CaMKIIδb T287D). The “Dose response of HDAC4-GFP nuclear localization (Nuc-Cyto)” value with HDAC4-GFP was “smooth dose response curves”.

On to `C[C@H](CCC(=O)O)C[C@H](C)C[C@H](C)C(=O)/C=C(\O)[C@H](C)C[C@H](C)C/C=C/[C@@H](C)[C@@H](O)[C@@H](C)[C@@H](O)C[C@@H]1CC[C@@](C)([C@H]2CC[C@@](C)([C@@H](C)O)O2)O1` [Ionomycin, ionomycin], for which the “Endogenous MEF2 activity (3xMEF2-Luc) after stimulation” value in the test with MEF2 (NRVMs) is listed as “doubled”.

Turning to `COc1ccc(S(=O)(=O)N(CCO)c2ccccc2CN(C)C/C=C/c2ccc(Cl)cc2)cc1` [KN93], the “Effect of kinase inhibitor” value with HDAC4 [1] is on record as “markedly reduced; also recorded: effective in blocking”. Also, the “Effect on PE-induced nuclear export of HDAC5” value in the test on HDAC5 (KN93 5 μmol/l pretreatment) is “not affected; also recorded: not blocked”. In the test on MEF2, the “Effect on ionomycin-induced increase” value is “blocked”.

For `CN[C@@H]1C[C@H]2O[C@@](C)([C@@H]1OC)n1c3ccccc3c3c4c(c5c6ccccc6n2c5c31)C(=O)NC4` [staurosporine], the “Dose response of HDAC4-GFP nuclear localization (Nuc-Cyto)” value in the test on HDAC4-GFP is on record as “smooth dose response curves”.
